Patent US20130096055A1, “LONG-ACTING Y2 RECEPTOR AGONISTS” (Novo Nordisk A/S, priority 2009, published 2013)
Starred links: 1 amine or outer side, 2 acyl side, 3 side chain; linkers in the order of their positions; H or OH if unused. Groups on a side chain read outwards from the residue. No end group written: not given here. *: point of attachment. C18 diacid = O=C(O)CCCCCCCCCCCCCCCCC(=O)*; γGlu = O=C(O)[C@H](CCC(=O)[*:2])N[*:1]; AEEA = NCCOCCOCC(=O)O

T1: Y1 receptor (Homo sapiens, UniProt P25929)
T1 construct: expressed in transfected cells; host or cells: ACTOne HEK-293 cells
T1 sequence (P25929 1-384): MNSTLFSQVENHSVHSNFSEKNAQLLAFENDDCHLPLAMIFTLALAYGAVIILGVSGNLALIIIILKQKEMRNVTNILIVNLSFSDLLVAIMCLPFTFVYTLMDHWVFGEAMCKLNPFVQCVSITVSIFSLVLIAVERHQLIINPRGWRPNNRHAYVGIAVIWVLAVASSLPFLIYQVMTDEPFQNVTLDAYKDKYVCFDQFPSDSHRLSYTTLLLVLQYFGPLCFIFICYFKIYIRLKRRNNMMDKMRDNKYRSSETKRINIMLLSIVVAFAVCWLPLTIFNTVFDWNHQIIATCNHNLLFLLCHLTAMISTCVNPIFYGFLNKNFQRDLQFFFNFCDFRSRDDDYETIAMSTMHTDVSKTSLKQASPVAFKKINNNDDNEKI

T2: human Y5 receptor (Homo sapiens, UniProt Q15761)
T2 construct: expressed in transfected cells
T2 sequence (Q15761 1-445): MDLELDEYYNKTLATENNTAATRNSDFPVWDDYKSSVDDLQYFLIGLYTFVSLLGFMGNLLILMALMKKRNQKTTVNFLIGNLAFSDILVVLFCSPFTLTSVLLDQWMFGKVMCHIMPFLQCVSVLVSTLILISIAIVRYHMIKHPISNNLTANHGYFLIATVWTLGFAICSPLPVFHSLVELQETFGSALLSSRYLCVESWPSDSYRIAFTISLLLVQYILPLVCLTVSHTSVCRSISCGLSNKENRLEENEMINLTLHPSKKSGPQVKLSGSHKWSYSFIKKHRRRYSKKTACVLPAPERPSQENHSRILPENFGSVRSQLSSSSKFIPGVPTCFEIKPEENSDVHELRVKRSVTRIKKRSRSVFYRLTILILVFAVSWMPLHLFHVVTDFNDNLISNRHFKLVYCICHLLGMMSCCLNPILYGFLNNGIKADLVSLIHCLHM

T3: Y1 receptor (UniProt P25929 1-384, limits assumed)
T3 sequence (looked up): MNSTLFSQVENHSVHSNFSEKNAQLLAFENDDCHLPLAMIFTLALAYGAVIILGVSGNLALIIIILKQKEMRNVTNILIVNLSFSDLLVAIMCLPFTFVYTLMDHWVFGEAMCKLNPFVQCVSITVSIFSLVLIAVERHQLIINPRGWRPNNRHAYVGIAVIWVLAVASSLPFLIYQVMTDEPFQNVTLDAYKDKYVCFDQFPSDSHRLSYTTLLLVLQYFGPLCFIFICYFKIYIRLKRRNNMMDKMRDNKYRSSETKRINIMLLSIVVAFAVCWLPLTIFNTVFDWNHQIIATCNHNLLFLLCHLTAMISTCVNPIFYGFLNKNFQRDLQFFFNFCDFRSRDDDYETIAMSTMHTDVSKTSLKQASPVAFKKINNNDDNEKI

T4: Y2 receptor (UniProt P49146 1-381, limits assumed)
T4 sequence (looked up): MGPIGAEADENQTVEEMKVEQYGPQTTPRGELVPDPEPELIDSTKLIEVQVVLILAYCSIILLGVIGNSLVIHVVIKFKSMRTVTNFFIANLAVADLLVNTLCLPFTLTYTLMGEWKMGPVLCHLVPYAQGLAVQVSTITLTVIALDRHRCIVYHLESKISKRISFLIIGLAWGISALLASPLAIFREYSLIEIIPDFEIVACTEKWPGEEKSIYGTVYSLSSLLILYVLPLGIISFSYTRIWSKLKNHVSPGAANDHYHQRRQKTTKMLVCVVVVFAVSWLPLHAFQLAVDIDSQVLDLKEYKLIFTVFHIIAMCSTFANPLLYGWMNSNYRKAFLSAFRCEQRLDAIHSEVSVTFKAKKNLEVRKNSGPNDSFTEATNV

T5: human Y5 receptor (human, UniProt Q15761 1-445)
T5 sequence (looked up): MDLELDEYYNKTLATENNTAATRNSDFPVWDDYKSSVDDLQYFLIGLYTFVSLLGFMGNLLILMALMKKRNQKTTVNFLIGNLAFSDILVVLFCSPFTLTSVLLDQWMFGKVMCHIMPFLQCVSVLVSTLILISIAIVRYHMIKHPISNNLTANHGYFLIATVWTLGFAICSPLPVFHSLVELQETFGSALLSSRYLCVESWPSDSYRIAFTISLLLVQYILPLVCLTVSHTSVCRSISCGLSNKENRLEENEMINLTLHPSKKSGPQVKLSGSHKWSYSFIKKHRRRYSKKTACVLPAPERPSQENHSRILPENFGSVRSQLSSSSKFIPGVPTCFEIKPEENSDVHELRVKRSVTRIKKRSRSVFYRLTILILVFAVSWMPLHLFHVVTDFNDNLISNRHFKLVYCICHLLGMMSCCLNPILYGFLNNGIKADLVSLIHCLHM


Assays:
Y1 receptor [1] = target: T1, Y1 receptor; test: Assay (II) Y1 receptor ACTOne potency assay; format: cell-based
Description: ACTOne™ is an easily scaleable cAMP biosensor HTS platform for measurement of Gs and Gi coupled 7™ receptor signalling from BD Biosciences (San Jose, Calif.). The cells express a biosensor developed around a modified rat olfactory cyclic nucleotide gated (CNG) calcium channel—a fairly non-discriminatory ion channel that responds to cAMP and cGMP. The CNG has been engineered to be cAMP selective and thus function as a cAMP responsive biosensor that signals through calcium or membrane potential responsive dyes.

human Y5 receptor [2] = target: T2, human Y5 receptor; test: Assay (III) Y5 receptor IPOne potency assay; format: cell-based
Y1 receptor [3] = target: T3, Y1 receptor; test: cell-based or functional assay
Y2 receptor = target: T4, Y2 receptor; test: cell-based or functional assay
human Y5 receptor [4] = target: T5, human Y5 receptor; test: cell-based or functional assay

Molecule	EC50 (Y1 receptor [1]) [nM]	Receptor potency Y1/Y2 ratio (Y1 receptor [1]; ratio of Y1 (Assay II) to Y2 (Assay I) receptor potency)	EC50 (human Y5 receptor [2]) [nM]	Receptor potency Y5/Y2 ratio (human Y5 receptor [2]; ratio of Y5 (Assay III) to Y2 (Assay I) receptor potency)	Receptor potency Y1 (Assay (II), ACTOne) (Y1 receptor [3]) [nM]	Receptor potency Y2 (Assay (I), ACTOne) (Y2 receptor) [nM]	Receptor potency Y5 (Assay (III), IPOne) (human Y5 receptor [4]) [nM]
CC[C@H](C)[C@H](N)C(=O)N[C@@H](CCCNC(=N)N)C(=O)N1CCC[C@H]1C(=O)N[C@@H](CCC(=O)O)C(=O)N[C@@H](C)C(=O)N1CCC[C@H]1C(=O)NCC(=O)N[C@@H](CCC(=O)O)C(=O)N[C@@H](CC(=O)O)C(=O)N[C@@H](C)C(=O)N[C@@H](CO)C(=O)N1CCC[C@H]1C(=O)N[C@@H](CCC(=O)O)C(=O)N[C@@H](CCC(=O)O)C(=O)N[C@@H](CC(C)C)C(=O)N[C@@H](CCC(=O)O)C(=O)N[C@@H](CCCNC(=N)N)C(=O)N[C@@H](Cc1ccc(O)cc1)C(=O)N[C@@H](Cc1ccc(O)cc1)C(=O)N[C@@H](C)C(=O)N[C@@H](CO)C(=O)N[C@@H](CC(C)C)C(=O)N[C@@H](CCCNC(=N)N)C(=O)N[C@@H](Cc1c[nH]cn1)C(=O)N[C@@H](Cc1ccc(O)cc1)C(=O)N[C@@H](CC(C)C)C(=O)N[C@@H](CCC(N)=O)C(=O)N[C@@H](CCCCNC(=O)COCCOCCNC(=O)COCCOCCNC(=O)CC[C@H](NC(=O)CCCCCCCCCCCCCCCCC(=O)O)C(=O)O)C(=O)N[C@H](C(=O)N[C@H](C(=O)N[C@@H](CCCNC(=N)N)C(=O)N[C@@H](CCC(N)=O)C(=O)N[C@@H](CCCNC(=N)N)C(=O)N[C@@H](Cc1ccc(O)cc1)C(N)=O)[C@@H](C)O)C(C)C [SEQ ID NO: 39, N-epsilon30[2-(2-{2-[2-(2-{2-[(S)-4-Carboxy-4-(17-carboxyheptadecanoylamino)butyrylamino]ethoxy}ethoxy)acetylamino]ethoxy}ethoxy)acetyl][Arg4,Glu18,Gln29,Lys30]hPYY(3-36)]	≥ 1000	>3.6	≥ 1000	>3.6	–	–	–
IRPEAPGEDASPEELERYYASLRHYLQK([AEEA-AEEA-γGlu-C18 diacid])VTRQRY-NH2	–	–	–	–	≥ 1000	274	≥ 1000
